The values that follow come from PMC3009740 (PLoS ONE, 2010).

Substitutions are numbered along the chain they refer to. Read-outs that look alike come from different tables or passages of the source.

One test has as its system CHO hM1 cells. The test is described as follows: Protein content (method of Bradford) of CHO hM1 cells after pretreatment. The class given is cell-based, Chinese hamster. An excerpt: In order to account for these variances, the method of Bradford was used to quantify changes in protein content in CHO hM1 cells. […] This is in contrast to the complete inhibition of binding observed prior to prolonged waiting.

Test [1] has as its target T1, human M1 muscarinic acetylcholine receptor (Homo sapiens, UniProt P11229).
T1 sequence (P11229 1-460): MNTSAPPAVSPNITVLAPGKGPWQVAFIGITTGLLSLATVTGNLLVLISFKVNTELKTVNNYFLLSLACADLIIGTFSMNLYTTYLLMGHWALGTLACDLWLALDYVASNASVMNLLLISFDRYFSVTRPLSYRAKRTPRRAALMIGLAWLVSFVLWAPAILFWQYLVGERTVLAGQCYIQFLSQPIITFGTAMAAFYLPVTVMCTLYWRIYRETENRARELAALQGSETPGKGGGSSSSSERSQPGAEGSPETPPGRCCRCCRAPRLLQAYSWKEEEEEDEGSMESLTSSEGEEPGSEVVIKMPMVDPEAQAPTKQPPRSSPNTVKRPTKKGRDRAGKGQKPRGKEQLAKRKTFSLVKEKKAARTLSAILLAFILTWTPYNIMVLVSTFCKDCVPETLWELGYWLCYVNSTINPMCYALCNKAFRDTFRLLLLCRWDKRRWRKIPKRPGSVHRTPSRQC
The test is described as follows: cell-based. How it is done: (§1) Labeled cells were harvested by trypsinization, centrifuged, and washed three times in HEPES buffer to remove unincorporated myo-[^3H]inositol. Labeled cells were distributed to assay tubes (500,000 cells/tube), and allowed to incubate for 15 min at 37°C. […] In all cases, the reaction was allowed to proceed in the presence of 10 mM LiCl for 1 h at 37°C after the addition of agonist before being stopped with chloroform/methanol (2∶1) and centrifuged (450×g; 15 min).
Alternatively, cells were grown in 24-well plates and loaded with myo-[^3H]inositol as described above. […] In all cases, the reaction was stopped with 0.3 M HClO4, neutralized with 0.15 M K2CO3, and samples were centrifuged (1500×g; 15 min).
(§2) For all experiments, [^14C]inositol-1-phosphate was added to each sample as an internal recovery standard. Total inositol phosphates were separated by ion exchange chromatography (AG1-X8 resin). The amount of radioactivity (disintegrations per minute) in each sample was determined by liquid scintillation spectrometry and adjusted for ^14C recovery.
(§3) In functional assays of PI hydrolysis, raw data were corrected for ^14C recovery to account for individual column differences in efficiency. Individual concentration-response curve data were fitted to a four-parameter logistic function using Prism to obtain estimates of EC50 (half-effective concentration) and Emax.

Test [2] concerns the target T2, rat M1 mutant^123 muscarinic acetylcholine receptor (Rattus norvegicus, UniProt P08482).
T2 sequence (P08482 1-460): T1 sequence (P11229 1-460) with A5V, T254S, P309S, R320K, A337G, I413V
As to conditions: mutant^123 cells stimulated with agonist (data not shown). On the procedure:
as §1, §2, §3

Test [3] addresses T3, rat M1 wild-type muscarinic acetylcholine receptor (Rattus norvegicus, UniProt P08482).
T3 sequence (P08482 1-460): T1 sequence (P11229 1-460) with A5V, T254S, P309S, R320K, A337G, I413V
As to conditions: naïve CHO rM1 cells. How it is done: as §1, §2, §3

The target in test [4] is T3, rat M1 wild-type muscarinic acetylcholine receptor.
Test [5] addresses T2, rat M1 mutant^123 muscarinic acetylcholine receptor.
Test [6] has as its target T3, rat M1 wild-type muscarinic acetylcholine receptor. As to conditions: washout, control 2200±90.
The target in test [7] is T2, rat M1 mutant^123 muscarinic acetylcholine receptor. The note with it: washout, control 2700±300.
[8] abbreviates: 1 h pretreatment, washout, 23 h wait.

What is called EC50 is the concentration giving half of the maximal effect. A lower EC50 goes with a more potent agent.

For `C[N+](C)(C)CCOC(N)=O` [carbachol], in the test on CHO hM1 cells (24-h pretreatment, at 10 mM carbachol), the “maximal decrease in protein content” value is 26±6.6%.
As for `O=C1CCCN1CC#CCN1CCCC1` [oxotremorine], in test [1], the “Emax, maximal accumulation of inositol phosphates” value was found to be 10000±800 dpm and the “increase in the EC50 of agonist-stimulated PI hydrolysis” value came to 32 fold. In test [1] (pEC50 of PI hydrolysis), the EC50 was 200 nM.
Turning to `CCCCCCOc1nsnc1C1=CCCN(C)C1` [xanomeline, 3-[3-hexyloxy-1,2,5-thiadiazo-4-yl]-1,2,5,6-tetrahydro-1-methylpyridine], the PI response result in test [2] is “did not produce a significant PI response”. The “Emax, maximal response” value in test [3] is listed as 18000±5500 dpm. For the same compound, the “maximal decrease in protein content” value is given as 32±2% with CHO hM1 cells (1-h pretreatment followed by washing and prolonged waiting, at 10 µM xanomeline); 65±7% in the test on CHO hM1 cells (24-h pretreatment, at 10 µM xanomeline). Moreover, the “Imax, maximal percentage inhibition of [3H]NMS binding” value in test [4] (1 h pretreatment, washout) stood at 95±0.5%; in test [4] (setting [8]), 99±2.3%; in test [4] (24 h pretreatment, washout), 97±0.5%; in test [4] (Control: naïve cells) it was 99±0.6%; in test [5] (1 h pretreatment, washout), 96±0.7%; in test [5] (setting [8]) it was 60±7.4 %. For the same compound, the “Imax, maximal percentage inhibition of [3H]NMS binding” value in test [5] (24 h pretreatment, washout) is reported as 90±2.9%; in test [5] (Control: naïve cells) it was 99±0.5%. Besides, the “percentage of high-affinity binding sites” value is 74±1.1% in test [4] (setting [8]) and 47±7.7% in test [4] (24 h pretreatment, washout). Besides, the “Bmax, maximal cell-surface receptor density” value in test [6] (3 µM xanomeline 1 h, 23 h wait) is 1100±150 dpm/100,000 cells; in test [6] (3 µM xanomeline 1 h) it was 2600±430 dpm/100,000 cells; in test [6] (3 µM xanomeline 24 h) it was 1300±150 dpm/100,000 cells; in test [7] (3 µM xanomeline 1 h, 23 h wait), 3400±610 dpm/100,000 cells; in test [7] (3 µM xanomeline 1 h) it was 3000±380 dpm/100,000 cells; in test [7] (3 µM xanomeline 24 h), 3600±320 dpm/100,000 cells.
